Several values for one entry are separate records, joined by “and”; a condition that tells them apart may be missing. Equal values may be shown once. Entries after “also recorded” stand apart in the source; their conditions may differ. Read-outs that look alike come from different tables or passages of the source. Numbered stars: 1 amine (or outer) side, 2 acyl side, 3 side chain; on linkers, the order of the positions; unused ones are H or OH. Square brackets hold non-standard residues; d marks the D form. Peptide text beside a SMILES is read from it. ξ: configuration not given here. X1 = CN(C(Cc1cn(Cc2ccc(Br)cc2)c2ccccc12)C(=O)[*:2])[*:1]; ξAla(CF3) = NC(CC(F)(F)F)C(=O)O; X2 = N#CCCC(O[*:1])C(=O)[*:2]; NMeL = CN[CH](CC(C)C)C(=O)O; NMeA = CN[CH](C)C(=O)O
Legend:
[1] = test system: collagen antibody-induced arthritis in BALB/c mice; test: Anticollagen antibody-induced arthritis model, clinical scores; type: in vivo, mouse
[2] = test system: Sec61 R66I TNFa(FL) reporter cells; test: CTG (CellTiter-Glo) viability of TNFa(FL) reporter cells expressing Sec61 R66I; type: cell-based; conditions: replicate columns
Excerpt: Supplement 41589_2023_1326_MOESM7_ESM.xlsx, sheet "Panel B" | column: Sec61 R66I - CTG (TNFa(FL))

Sec61α Q127A = Sec61α Q127A (Canis lupus familiaris, UniProt P38377, Q127A); test: Luciferase reporter assay in HEK293 cells expressing Sec61α Q127A; parameters: remaining activity: dose or concentration left out as unconfirmed; conditions: HEK293, 24 h, read-out: luciferase reporter activity (% of no-drug control), Q127A
Sequence of Sec61α Q127A (P60059 whole entry, the tested form may be a part): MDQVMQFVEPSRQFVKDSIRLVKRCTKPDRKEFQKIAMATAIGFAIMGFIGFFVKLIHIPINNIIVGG
Sequence of Sec61α Q127A (P60468 whole entry, further chain, the tested form may be a part): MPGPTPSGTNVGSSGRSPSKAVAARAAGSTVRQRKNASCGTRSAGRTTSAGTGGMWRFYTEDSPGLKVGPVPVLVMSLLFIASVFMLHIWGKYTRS
Sequence of Sec61α Q127A (P38377 whole entry Q127A, the tested form may be a part): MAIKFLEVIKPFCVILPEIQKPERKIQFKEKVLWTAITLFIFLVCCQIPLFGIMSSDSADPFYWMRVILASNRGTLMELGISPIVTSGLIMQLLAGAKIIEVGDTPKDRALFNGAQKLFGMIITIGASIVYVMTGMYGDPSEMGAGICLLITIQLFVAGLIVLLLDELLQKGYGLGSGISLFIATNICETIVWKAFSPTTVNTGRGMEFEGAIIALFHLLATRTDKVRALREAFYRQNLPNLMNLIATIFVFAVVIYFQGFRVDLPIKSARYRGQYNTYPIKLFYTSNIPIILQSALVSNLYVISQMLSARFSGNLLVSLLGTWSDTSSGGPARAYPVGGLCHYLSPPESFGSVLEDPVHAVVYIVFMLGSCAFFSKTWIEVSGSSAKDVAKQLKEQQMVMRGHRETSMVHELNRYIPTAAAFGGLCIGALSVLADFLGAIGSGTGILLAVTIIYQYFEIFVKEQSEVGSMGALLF
Method: Data are mean values ± s.d. from n = 2 independent experiments.
HEK293T cells (0.3 × 10^6) were seeded per well of a six-well plate and incubated at 37 °C in 5% CO2 for 24 h to adhere. Each of the two wells was transfected with 1 µg of plasmid encoding a luciferase with the signal peptide of either VCAM1 or pPL using PEI in a 5:1 ratio, after which cells were returned to the incubator for a further 24 h. Transfected cells were then resuspended following trypsinization, cell count estimated using a TC20 Automated Cell Counter (BioRad) and diluted to seed a 96-well flat-bottom plate with 1.6 × 10^4 cells per well. […] Cells were then incubated for a further 24 h, after which the luciferase-containing media were transferred to a clean 96-well plate and stored at −20 °C. Luciferase activity of the media was estimated using a Gaussia-GLOW Juice Luciferase Assay kit from PJK Biotech GmbH as per the manufacturer’s instructions. Luminescence was measured using an EnSpire Multimode plate reader (PerkinElmer). Background luminescence from media placed in a well with neither cells nor drug was subtracted from all values, and measurements were calculated as a percentage of luminescence intensity of a well expressing the appropriate luciferase construct in the absence of any drug. Curves were fitted, and IC50 values were calculated using GraphPad Prism 8.
WT canine Sec61 was cloned into pcDNA5/FRT/TO (Thermo Fisher Scientific), and point mutations were generated using PCR. All mutants were sequence verified. HEK293 Flp-In T-REx cells (Thermo Fisher Scientific, R78007) were cultured in Dulbecco’s modified Eagle’s medium (Gibco) supplemented with 10% FBS (Gibco) at 37 °C in a humidified 5% CO2 atmosphere. Approximately 0.3 µg of pOG44 and 1 µg of targeting construct plasmids were mixed in 250 µl of OptiMEM (Thermo Fisher Scientific, 51985-026). A total of 3 µl (3 µg) Lipofectamine3000 transfection reagent was then added to the DNA mix and incubated at room temperature for 20 min, and the whole mixture was added to the cells. Cells were exposed to 100 µg ml^−^1 hygromycin B (Invitrogen) and 10 µg ml^−^1 blasticidin for 3–4 weeks until the appearance of resistant colonies. Colonies were expanded into T75 flasks and induced with doxycycline (Sigma-Aldrich, D9891) at a concentration of 1–5 µg ml^−^1 for 48 h. Cells were collected, and total RNA was extracted followed by cDNA amplification and sequencing of Sec61 with gene-specific PCR primers to confirm. Cells were then used for the luciferase reporter assays as above.
Data are mean values ± SD and are representative of n = 2 independent experiments.

R66I Sec61α = molecular target: T1, R66I Sec61α (Canis lupus familiaris, UniProt P38377, R66I); test: GLuc secretion reporter fused to full-length IL-2 or TNF, cells stably expressing R66I Sec61α; type: cell-based, canine; conditions: for Sec61 R66I - Hu IL2(FL) / Sec61 R66I - Hu PD1(ss) / Sec61 R66I - Hu TNFa(FL): replicate columns
T1 construct: expressed in transfected cells
T1 sequence (P60468 whole entry, the tested form may be a part): as the sequence (P60468 whole entry, further chain, the tested form may be a part) above
T1 sequence (P38377 whole entry R66I, the tested form may be a part): as the sequence (P38377 whole entry Q127A, the tested form may be a part) above, with R66I, A127Q counted along it
T1 sequence (P60059 whole entry, further chain, the tested form may be a part): as the sequence (P60059 whole entry, the tested form may be a part) above

[3] = test system: Sec61 WT TNFa(FL) reporter cells; test: CTG (CellTiter-Glo) viability of TNFa(FL) reporter cells expressing Sec61 WT; type: cell-based; conditions: replicate columns
Excerpt: Supplement 41589_2023_1326_MOESM7_ESM.xlsx, sheet "Panel B" | column: Sec61 WT - CTG (TNFa(FL))

human PBMCs = conditions: concentrations up to 20 µM; PBMCs and splenocytes

SMILES: CC(C)CC1NC(=O)C(Cc2cn(Cc3ccc(Br)cc3)c3ccccc23)N(C)C(=O)C(CC(F)(F)F)NC(=O)C(CC(C)C)N(C)C(=O)C(CC(F)(F)F)NC(=O)C(CCC#N)OC(=O)C(C)N(C)C1=O (stereo not drawn) [KZR-8445] (cyclo([X1]L[NMeA][X2][ξAla(CF3)][NMeL][ξAla(CF3)]); configuration not given here)
- arthritis disease progression / clinical symptoms ([1]; IV thrice weekly after onset of disease): blocked disease progression in a dose-dependent manner; also recorded: ameliorated clinical arthritis symptoms
- anti-inflammatory effect compared with dexamethasone ([1]; highest dose): stronger anti-inflammatory effect than the corticosteroid dexamethasone
- Sec61 R66I - CTG (TNFa(FL)) ([2]; 0.32 nM): 108 and 113 and 120
- Sec61 R66I - CTG (TNFa(FL)) ([2]; 1.6 nM): 101 and 108 and 112
- Sec61 R66I - CTG (TNFa(FL)) ([2]; 8 nM): 103 and 106 and 110
- Sec61 R66I - CTG (TNFa(FL)) ([2]; 40 nM): 99 and 111 and 119
- Sec61 R66I - CTG (TNFa(FL)) ([2]; 200 nM): 106 and 110 and 120
- Sec61 R66I - CTG (TNFa(FL)) ([2]; 1000 nM): 112 (2×) and 113
- Sec61 R66I - CTG (TNFa(FL)) ([2]; 5000 nM): 102 and 107 and 104
- Sec61 R66I - CTG (TNFa(FL)) ([2]; 25000 nM): 101 and 94 and 102
- remaining activity at 0.00018303 µM (Sec61α Q127A; Drug nM (log10) 0.18303): 76.3%
- remaining activity at 0.000660151 µM (Sec61α Q127A; Drug nM (log10) 0.660151): 76.5%
- remaining activity at 0.00113727 µM (Sec61α Q127A; Drug nM (log10) 1.13727): 51.2%
- remaining activity (Sec61α Q127A; Drug nM (log10) 1.61439): 32.3%
- remaining activity (Sec61α Q127A; Drug nM (log10) 2.09151): 14.7%
- remaining activity (Sec61α Q127A; Drug nM (log10) 2.56864): 6.52%
- remaining activity (Sec61α Q127A; Drug nM (log10) 3.04576): 3.21%
- remaining activity (Sec61α Q127A; Drug nM (log10) 3.52288): 2.56%
- remaining activity at 0.004 µM (Sec61α Q127A; Drug nM (log10) 4): 2.87%
- remaining activity at 0.000508 µM (Sec61α Q127A; Drug nM (log10) -0.29409): 88.9%
- Sec61 R66I - Hu IL2(FL) (R66I Sec61α; 0.32 nM): 116 (2×) and 120
- Sec61 R66I - Hu PD1(ss) (R66I Sec61α; 0.32 nM): 105 and 121 and 112
- Sec61 R66I - Hu TNFa(FL) (R66I Sec61α; 0.32 nM): 121 and 138 and 116
- Sec61 R66I - Hu IL2(FL) (R66I Sec61α; 1.6 nM): 105 and 113 and 110
- Sec61 R66I - Hu PD1(ss) (R66I Sec61α; 1.6 nM): 120 and 103 and 107
- Sec61 R66I - Hu TNFa(FL) (R66I Sec61α; 1.6 nM): 85 and 126 and 152
- Sec61 R66I - Hu IL2(FL) (R66I Sec61α; 8 nM): 113 and 98 and 120
- Sec61 R66I - Hu PD1(ss) (R66I Sec61α; 8 nM): 115 and 104 and 125
- Sec61 R66I - Hu TNFa(FL) (R66I Sec61α; 8 nM): 118 and 113 and 150
- Sec61 R66I - Hu IL2(FL) (R66I Sec61α; 40 nM): 101 and 106 and 117
- Sec61 R66I - Hu PD1(ss) (R66I Sec61α; 40 nM): 115 and 120 and 121
- Sec61 R66I - Hu TNFa(FL) (R66I Sec61α; 40 nM): 103 and 123 and 141
- Sec61 R66I - Hu IL2(FL) (R66I Sec61α; 200 nM): 106 and 96 and 94
- Sec61 R66I - Hu PD1(ss) (R66I Sec61α; 200 nM): 88 and 107 and 86
- Sec61 R66I - Hu TNFa(FL) (R66I Sec61α; 200 nM): 88 and 105 and 111
- Sec61 R66I - Hu IL2(FL) (R66I Sec61α; 1000 nM): 79 and 90 and 87
- Sec61 R66I - Hu PD1(ss) (R66I Sec61α; 1000 nM): 68 and 64 and 75
- Sec61 R66I - Hu TNFa(FL) (R66I Sec61α; 1000 nM): 82 (2×) and 71
- Sec61 R66I - Hu IL2(FL) (R66I Sec61α; 5000 nM): 83 and 76 and 88
- Sec61 R66I - Hu PD1(ss) (R66I Sec61α; 5000 nM): 52 and 49 (2×)
- Sec61 R66I - Hu TNFa(FL) (R66I Sec61α; 5000 nM): 73 and 85 and 77
- Sec61 R66I - Hu IL2(FL) (R66I Sec61α; 25000 nM): 89 and 88 and 72
- Sec61 R66I - Hu PD1(ss) (R66I Sec61α; 25000 nM): 48 (2×) and 40
- Sec61 R66I - Hu TNFa(FL) (R66I Sec61α; 25000 nM): 70 and 78 and 77
- block of secretion of both GLuc reporter constructs in R66I cells (R66I Sec61α; IL-2 and TNFα GLuc, versus WT Sec61α): reduced
- Sec61 WT - CTG (TNFa(FL)) ([3]; 0.32 nM): 111 and 110 and 116
- Sec61 WT - CTG (TNFa(FL)) ([3]; 1.6 nM): 106 and 113 and 116
- Sec61 WT - CTG (TNFa(FL)) ([3]; 8 nM): 110 and 111 and 115
- Sec61 WT - CTG (TNFa(FL)) ([3]; 40 nM): 112 and 121 and 115
- Sec61 WT - CTG (TNFa(FL)) ([3]; 200 nM): 108 and 114 and 116
- Sec61 WT - CTG (TNFa(FL)) ([3]; 1000 nM): 105 and 108 and 113
- Sec61 WT - CTG (TNFa(FL)) ([3]; 5000 nM): 95 and 105 (2×)
- Sec61 WT - CTG (TNFa(FL)) ([3]; 25000 nM): 92 and 89 (2×)
- effects on cell viability (human PBMCs): minimal effects

Reference: PMC10449633 (Nature Chemical Biology, 2023)
